These results are taken from ChEMBL document CHEMBL1201862, “PubChem BioAssay data set” (2004).

Active and inactive are the calls of the source. Bounds are passed on as bounds.

One may read the AC50 as the concentration at which the activity in the assay is half-maximal.

The target of assay [1] is ATP-dependent translocase ABCB1 (Homo sapiens, UniProt P08183). The assay is described as follows: ABCB1 efflux inhibitor potency, dose response, Jurkat-DNR cells, JC-1, flow cytometry, set 2 (AID 504569).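 Further: potency of pump inhibitors that raise cellular JC-1 green fluorescence up to the nicardipine level.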 In kind it is functional. As to conditions: read-out: EC50_MICROM_. (In general: A flow cytometer gives signals particle by particle.)
The subject of the next assay is H9c2. The assay is described as follows: cells. The format is functional, cell-based. Conditions: Rattus norvegicus, H9c2, Myocardium.
Another assay has as its target PglD (Campylobacter jejuni, UniProt O86157). The assay is described as follows: PglD acetyltransferase inhibitors, dose response, biochemical, DTNB absorbance, cherry-picked samples, set 2 (AID 624257). In kind it is functional.
The subject of assay [2] is HEK293. The assay is described as follows: NOD2 signaling inhibitors in MDP-stimulated cells, cell-based, uHTS, luminescence (AID 2001). As to conditions: Homo sapiens. In kind it is functional.
Assay [3] is described as follows: off-target signal loss in HeLa-CEM21 co-culture – HeLa F-luc CTL cells, cherry-picked, counter-screen for HIV-1 Env fusion inhibitor project, dose response (AID 652040).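 Further: potency for signal decrease marking cytotoxic or nonspecific inhibition.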 In kind it is functional, cell-based. (A counterscreen serves to expose hits that act by an unwanted route or on another target.)
Assay [4] concerns HEK293. The assay is described as follows: cells. In kind it is functional, cell-based. As to conditions: Homo sapiens.
Assay [5] can be described thus: inhibitors of clade B AD8 Env fusion, dose response, cell-based, cherry-pick (AID 652062).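 Further: luciferase signal from cell-cell fusion driven by HIV-1 clade B AD8 Env; potency is for inhibitors of fusion seen as a drop in luminescence.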 The format is functional.
Assay [6] can be described thus: inhibitors of HIV Env-driven cell fusion, dose response, cherry-pick (AID 652057). In kind it is functional, cell-based.
Assay [7] relates to HEK293. The assay is described as follows: cells. The format is functional, cell-based. As to conditions: Homo sapiens. The source holds these as a separate data set.
Assay [8] is described as follows: ZM109 Env clade C HIV-1 fusion inhibitors, dose response, HeLa effector, CEM target cells, luciferase, cherry-pick (AID 652058). The format is functional, cell-based.
The target in assay [9] is Nucleotide-binding oligomerization domain-containing protein 2 (Homo sapiens, UniProt Q9HC29). The assay is described as follows: NOD2 signaling inhibitors, cell-based, luminescence, uHTS, HEK293 (AID 1566). The format is functional.
The test system of assay [10] is HEK293. The assay is described as follows: NOD1 signaling inhibitors, primary screen, cell-based, luminescence, uHTS (AID 1578). In kind it is functional. Conditions: Homo sapiens.
The test system of assay [11] is HEK293. The assay is described as follows: cells. As to conditions: Homo sapiens. The format is functional, cell-based. This is another data set of the same source.
The next assay deals with T1, Interleukin-8 (Homo sapiens, UniProt P10145).
T1 sequence (P10145 whole entry): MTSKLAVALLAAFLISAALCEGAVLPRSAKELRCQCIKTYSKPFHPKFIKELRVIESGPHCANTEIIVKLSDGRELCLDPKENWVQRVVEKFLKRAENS
The assay is described as follows: Dose Response confirmation of uHTS small molecule hits for cystic fibrosis induced NFkb Inhibitors in a PAF-induced IL8 counterscreen. As to conditions: read-out: IC50_Mean. In kind it is functional.

Assay [12] deals with T2, Beta-lactamase (Pseudomonas aeruginosa, UniProt Q79MP6). The assay is described as follows: […] counterscreen for selective VIM-2 inhibitors: dose response biochemical high throughput screening assay to identify inhibitors of IMP-1 metallo-beta-lactamase.
T2 sequence (Q79MP6 whole entry): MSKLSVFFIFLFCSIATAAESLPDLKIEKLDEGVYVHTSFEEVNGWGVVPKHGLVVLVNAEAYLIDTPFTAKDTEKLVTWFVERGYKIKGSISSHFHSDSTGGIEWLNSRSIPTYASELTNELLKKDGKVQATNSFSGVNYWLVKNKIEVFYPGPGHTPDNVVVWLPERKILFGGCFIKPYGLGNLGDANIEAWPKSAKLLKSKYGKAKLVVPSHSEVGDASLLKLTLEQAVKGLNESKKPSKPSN
The target in assay [13] is T2, Beta-lactamase. The assay is described as follows: IMP-1 metallo-beta-lactamase inhibitors, dose response, selectivity assay for VIM-2 inhibitor project, biochemical, epi-absorbance (AID 1920).
Assay [14] concerns the target Beta-lactamase (Salmonella choleraesuis (strain SC-B67), UniProt Q5J463). The assay is described as follows: Epi-absorbance-based counterscreen for selective VIM-2 inhibitors: dose response biochemical high throughput screening assay to identify inhibitors of TEM-1 serine-beta-lactamase.
Assay [15] addresses Tyrosine-protein phosphatase non-receptor type 11 (Homo sapiens, UniProt Q06124). The assay is described as follows: SHP2 phosphatase inhibition, dose response, selectivity assay for STEP inhibitor project, biochemical (AID 602367). In kind it is functional. As to conditions: read-out: IC50_Mean.
Assay [16] has as its target Tyrosine-protein phosphatase non-receptor type 5 (Homo sapiens, UniProt P54829). The assay is described as follows: STEP phosphatase inhibitors, confirmation, biochemical, fluorescence intensity, uHTS hits (AID 602372). The format is functional. As to conditions: read-out: IC50_Mean.
The target in assay [17] is Dual specificity protein phosphatase 3 (Homo sapiens, UniProt P51452). The assay is described as follows: VHR phosphatase inhibition, dose response, selectivity assay for STEP inhibitor project, biochemical (AID 602374). The format is functional. As to conditions: read-out: IC50_Mean.
Chain of Dual specificity protein phosphatase 3 (P51452 whole entry): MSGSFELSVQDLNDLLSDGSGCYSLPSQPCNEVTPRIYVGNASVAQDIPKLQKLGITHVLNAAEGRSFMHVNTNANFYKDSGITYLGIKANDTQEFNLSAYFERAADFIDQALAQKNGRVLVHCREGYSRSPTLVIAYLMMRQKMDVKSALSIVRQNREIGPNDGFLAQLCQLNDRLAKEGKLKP
The target in assay [18] is T3, Tyrosine-protein phosphatase non-receptor type 22 (Homo sapiens, UniProt Q9Y2R2).
T3 sequence (Q9Y2R2 whole entry): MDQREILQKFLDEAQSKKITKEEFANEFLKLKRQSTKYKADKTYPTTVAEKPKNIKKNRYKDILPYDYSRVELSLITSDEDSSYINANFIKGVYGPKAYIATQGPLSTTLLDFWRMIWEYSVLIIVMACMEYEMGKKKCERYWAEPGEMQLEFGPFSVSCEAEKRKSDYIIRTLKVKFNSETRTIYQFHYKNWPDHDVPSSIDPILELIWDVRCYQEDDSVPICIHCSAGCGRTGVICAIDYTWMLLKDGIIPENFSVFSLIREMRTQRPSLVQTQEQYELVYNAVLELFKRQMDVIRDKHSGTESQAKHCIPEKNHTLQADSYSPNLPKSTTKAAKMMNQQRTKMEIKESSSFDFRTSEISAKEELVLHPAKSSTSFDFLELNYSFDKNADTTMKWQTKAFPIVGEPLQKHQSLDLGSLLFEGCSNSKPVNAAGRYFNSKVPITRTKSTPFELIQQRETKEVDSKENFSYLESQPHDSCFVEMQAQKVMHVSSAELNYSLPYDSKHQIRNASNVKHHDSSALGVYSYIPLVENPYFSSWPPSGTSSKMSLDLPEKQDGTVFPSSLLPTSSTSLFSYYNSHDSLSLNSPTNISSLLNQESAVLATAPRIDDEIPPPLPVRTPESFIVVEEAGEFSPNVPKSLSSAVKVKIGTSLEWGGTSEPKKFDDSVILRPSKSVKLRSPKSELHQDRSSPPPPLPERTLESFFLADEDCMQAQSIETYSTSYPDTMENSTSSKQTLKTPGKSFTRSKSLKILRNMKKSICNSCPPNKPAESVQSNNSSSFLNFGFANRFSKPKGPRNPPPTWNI
The assay is described as follows: PTPN22 phosphatase inhibition, dose response, selectivity assay for STEP inhibitor project, biochemical (AID 624241). The format is functional.

The target of assay [19] is T4, Low molecular weight phosphotyrosine protein phosphatase (Homo sapiens, UniProt P24666).
T4 sequence (P24666 whole entry): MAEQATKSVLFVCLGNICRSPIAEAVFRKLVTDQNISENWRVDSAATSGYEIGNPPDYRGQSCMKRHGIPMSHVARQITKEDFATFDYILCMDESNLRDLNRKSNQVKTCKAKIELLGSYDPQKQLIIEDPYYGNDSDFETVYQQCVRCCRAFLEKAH
The format is functional. As to conditions: read-out: IC50_Mean.

For assay [20], the target named is T4, Low molecular weight phosphotyrosine protein phosphatase. The format is functional. As to conditions: read-out: IC50_Mean. The source holds these as a separate data set.
Assay [21] is described as follows: inhibitors of LMP1-driven NF-kB reporter, dose response, cell-based, EBV LMP1, luciferase, dry powder, set 2 (AID 624361). In kind it is functional.
A short description of assay [22]: inhibitors of TNFa-stimulated NF-kB luciferase reporter, dose response, selectivity assay for EBV LMP1 NF-kB inhibitor project, HEK293 LMP1 reporter cells, dry powder, set 2 (AID 624369). In kind it is functional. (Reporter assays use an easily measured gene product as a stand-in for the process of interest.)
In assay [23] the target is SWI/SNF-related matrix-associated actin-dependent regulator of chromatin subfamily A member 2 (Homo sapiens, UniProt P51531). The assay is described as follows: Luminescence-based cell-based high throughput dose response assay to identify activators of the function of SWI/SNF related, matrix associated, actin dependent regulator of chromatin, subfamily a, member 2 (SMARCA2, BRM). The format is functional.
Chain of SWI/SNF-related matrix-associated actin-dependent regulator of chromatin subfamily A member 2 (P51531 whole entry): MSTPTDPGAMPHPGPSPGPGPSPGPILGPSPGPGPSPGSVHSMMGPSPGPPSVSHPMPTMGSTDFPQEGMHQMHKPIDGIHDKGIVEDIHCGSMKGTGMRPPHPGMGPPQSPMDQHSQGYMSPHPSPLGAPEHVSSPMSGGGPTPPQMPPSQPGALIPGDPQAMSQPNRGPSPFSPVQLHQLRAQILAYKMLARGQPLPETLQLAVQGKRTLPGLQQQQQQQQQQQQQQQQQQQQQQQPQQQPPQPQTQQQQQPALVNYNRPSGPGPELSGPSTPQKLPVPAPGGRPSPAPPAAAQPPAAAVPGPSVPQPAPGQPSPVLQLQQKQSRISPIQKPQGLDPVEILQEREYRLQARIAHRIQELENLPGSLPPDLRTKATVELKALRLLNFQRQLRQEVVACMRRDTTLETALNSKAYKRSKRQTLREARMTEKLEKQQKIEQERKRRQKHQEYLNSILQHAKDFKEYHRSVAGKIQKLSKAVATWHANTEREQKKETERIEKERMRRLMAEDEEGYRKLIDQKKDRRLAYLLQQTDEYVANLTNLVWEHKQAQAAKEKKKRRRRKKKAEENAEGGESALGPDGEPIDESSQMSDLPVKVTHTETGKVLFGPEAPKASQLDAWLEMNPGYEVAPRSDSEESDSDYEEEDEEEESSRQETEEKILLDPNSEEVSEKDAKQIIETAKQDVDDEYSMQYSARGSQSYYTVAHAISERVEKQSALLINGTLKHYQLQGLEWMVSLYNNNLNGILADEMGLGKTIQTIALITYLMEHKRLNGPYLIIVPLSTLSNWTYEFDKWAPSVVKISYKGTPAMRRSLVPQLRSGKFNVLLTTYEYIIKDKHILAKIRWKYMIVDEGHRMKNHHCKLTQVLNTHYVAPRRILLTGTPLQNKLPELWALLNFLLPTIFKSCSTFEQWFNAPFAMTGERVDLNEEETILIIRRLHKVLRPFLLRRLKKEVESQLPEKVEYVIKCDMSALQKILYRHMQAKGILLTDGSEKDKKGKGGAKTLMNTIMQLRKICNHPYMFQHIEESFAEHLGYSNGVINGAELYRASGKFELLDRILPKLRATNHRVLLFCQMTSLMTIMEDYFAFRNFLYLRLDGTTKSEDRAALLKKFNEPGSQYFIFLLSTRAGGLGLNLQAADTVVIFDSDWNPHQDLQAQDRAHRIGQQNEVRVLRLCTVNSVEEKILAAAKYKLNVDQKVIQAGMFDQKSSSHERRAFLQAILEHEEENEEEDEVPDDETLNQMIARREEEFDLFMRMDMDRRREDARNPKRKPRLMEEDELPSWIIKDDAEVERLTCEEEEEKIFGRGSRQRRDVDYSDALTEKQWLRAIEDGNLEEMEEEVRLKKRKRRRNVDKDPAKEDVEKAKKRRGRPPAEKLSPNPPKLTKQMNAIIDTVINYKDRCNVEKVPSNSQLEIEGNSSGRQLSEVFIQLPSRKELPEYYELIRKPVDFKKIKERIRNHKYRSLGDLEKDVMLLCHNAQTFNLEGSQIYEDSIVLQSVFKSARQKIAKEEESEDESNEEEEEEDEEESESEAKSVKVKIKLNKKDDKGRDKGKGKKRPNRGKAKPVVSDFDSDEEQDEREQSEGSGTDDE

The nature of assay [24]: Counterscreen for activators of the function of SWI/SNF related, matrix associated, actin dependent regulator of chromatin, subfamily a, member 2 (SMARCA2, BRM): Luminescence-based cell-based high throughput dose response assay to identify non-selective compounds using the VP16 reporter assay. In kind it is functional.
Assay [25] has as its target T5, Sentrin-specific protease 1 (Homo sapiens, UniProt Q9P0U3). The assay is described as follows: potency of human SENP1 inhibitors, dose response, biochemical, kinetic FRET (AID 651697). The format is functional. As to conditions: read-out: IC50_Mean.
Assay [26] deals with T5, Sentrin-specific protease 1. The assay is described as follows: Dose response confirmation of small molecule inhibitors of the catalytic domain of the SUMO protease, SENP1 in a FRET assay. The format is functional. As to conditions: read-out: IC50_Mean.

T5 sequence (Q9P0U3 whole entry, the tested form may be a part): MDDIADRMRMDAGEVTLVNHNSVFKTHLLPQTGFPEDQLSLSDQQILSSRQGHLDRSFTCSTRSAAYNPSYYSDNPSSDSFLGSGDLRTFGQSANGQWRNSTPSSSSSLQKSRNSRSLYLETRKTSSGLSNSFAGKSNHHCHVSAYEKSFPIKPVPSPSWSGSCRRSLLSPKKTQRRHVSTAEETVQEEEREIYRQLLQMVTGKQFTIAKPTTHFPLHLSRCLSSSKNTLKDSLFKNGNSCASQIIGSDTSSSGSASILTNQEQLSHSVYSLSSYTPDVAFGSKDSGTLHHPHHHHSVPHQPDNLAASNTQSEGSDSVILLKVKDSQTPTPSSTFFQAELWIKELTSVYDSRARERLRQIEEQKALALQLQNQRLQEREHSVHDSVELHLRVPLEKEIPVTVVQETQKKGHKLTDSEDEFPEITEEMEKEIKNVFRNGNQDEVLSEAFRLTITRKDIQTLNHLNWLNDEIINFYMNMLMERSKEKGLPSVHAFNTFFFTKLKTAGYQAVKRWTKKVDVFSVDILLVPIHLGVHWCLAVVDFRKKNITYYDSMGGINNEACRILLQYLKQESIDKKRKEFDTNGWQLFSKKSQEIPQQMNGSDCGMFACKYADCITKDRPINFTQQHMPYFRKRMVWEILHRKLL
Chain of Tyrosine-protein phosphatase non-receptor type 11 (Q06124 whole entry): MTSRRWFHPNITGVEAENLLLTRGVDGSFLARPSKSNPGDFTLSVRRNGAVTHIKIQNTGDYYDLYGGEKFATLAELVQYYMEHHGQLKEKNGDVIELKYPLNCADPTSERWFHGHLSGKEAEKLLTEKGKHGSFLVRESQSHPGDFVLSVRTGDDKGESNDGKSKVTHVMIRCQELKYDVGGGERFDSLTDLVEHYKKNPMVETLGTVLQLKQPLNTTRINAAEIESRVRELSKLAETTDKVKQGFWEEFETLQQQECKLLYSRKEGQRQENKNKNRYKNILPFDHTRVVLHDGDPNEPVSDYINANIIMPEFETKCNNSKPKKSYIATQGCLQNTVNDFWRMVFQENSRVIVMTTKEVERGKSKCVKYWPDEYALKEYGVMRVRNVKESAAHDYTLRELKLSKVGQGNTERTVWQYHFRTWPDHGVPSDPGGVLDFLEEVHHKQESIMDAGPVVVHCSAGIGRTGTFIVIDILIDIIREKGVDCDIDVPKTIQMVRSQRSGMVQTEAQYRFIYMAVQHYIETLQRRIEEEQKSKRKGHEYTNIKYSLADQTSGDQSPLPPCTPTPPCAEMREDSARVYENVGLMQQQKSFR
Chain of PglD (O86157 whole entry): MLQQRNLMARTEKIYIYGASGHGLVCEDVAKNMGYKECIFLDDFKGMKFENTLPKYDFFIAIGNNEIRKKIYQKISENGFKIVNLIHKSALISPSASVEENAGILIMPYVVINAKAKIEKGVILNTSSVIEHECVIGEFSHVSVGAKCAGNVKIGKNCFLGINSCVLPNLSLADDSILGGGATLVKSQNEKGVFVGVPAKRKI
Chain of Tyrosine-protein phosphatase non-receptor type 5 (P54829 whole entry): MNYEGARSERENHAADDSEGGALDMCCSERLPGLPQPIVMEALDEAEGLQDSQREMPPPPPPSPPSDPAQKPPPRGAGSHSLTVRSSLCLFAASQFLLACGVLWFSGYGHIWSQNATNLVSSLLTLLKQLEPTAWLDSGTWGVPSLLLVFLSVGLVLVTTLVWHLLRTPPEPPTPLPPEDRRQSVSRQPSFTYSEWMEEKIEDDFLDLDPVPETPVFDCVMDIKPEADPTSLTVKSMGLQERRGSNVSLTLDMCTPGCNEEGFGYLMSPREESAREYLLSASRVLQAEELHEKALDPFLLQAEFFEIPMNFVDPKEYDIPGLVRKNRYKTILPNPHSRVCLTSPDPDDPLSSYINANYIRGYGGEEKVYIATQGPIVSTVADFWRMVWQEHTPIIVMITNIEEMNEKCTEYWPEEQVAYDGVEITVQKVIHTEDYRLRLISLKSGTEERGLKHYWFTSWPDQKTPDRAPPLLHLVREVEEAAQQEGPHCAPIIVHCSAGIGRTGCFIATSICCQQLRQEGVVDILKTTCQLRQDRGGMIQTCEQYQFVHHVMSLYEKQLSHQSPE
Chain of Beta-lactamase (Salmonella choleraesuis (strain SC-B67), UniProt Q5J463) (Q5J463 whole entry): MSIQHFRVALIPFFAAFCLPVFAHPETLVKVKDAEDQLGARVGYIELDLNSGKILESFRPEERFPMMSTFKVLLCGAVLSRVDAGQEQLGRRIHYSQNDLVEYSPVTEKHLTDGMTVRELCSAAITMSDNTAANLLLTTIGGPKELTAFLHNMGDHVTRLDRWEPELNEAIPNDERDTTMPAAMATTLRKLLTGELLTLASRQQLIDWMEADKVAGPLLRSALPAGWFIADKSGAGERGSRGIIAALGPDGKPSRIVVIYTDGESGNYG

For the molecule `COc1ccc(-c2cc3nc(-c4ccccc4)cc(N4CCN(C(=O)c5ccoc5)CC4)n3n2)cc1`, in [1], the EC50 is 0.94 µM (active). Moreover, the IC50 in the assay with H9c2 was > 79 µM (inactive).
For the molecule `Cc1c(C(=O)O)sc2nc(/C=C/c3cccc(O)c3)nc(O)c12`, the AC50 on PglD was 4.58 µM (active).
In the case of `Cn1c(=O)c2c(nc(Oc3ccc4ccccc4c3)n2C)n(C)c1=O`, the IC50 is 3.88 µM (active) in the assay with HEK293 [2]; 3.32 µM (active) in the assay on HEK293 [4]; > 20 µM (inactive) in the assay on HEK293 [7]; > 20 µM (inactive) in the assay on HEK293 [11]; 14 µM (inactive) on Interleukin-8. In addition, the AC50 is 18.4 µM (active) in assay [3], 2.05 µM (active) in assay [5], 11.6 µM (active) in assay [6] and 40.2 µM (active) in assay [8]. Moreover, the EC50 in [9] was 4.28 µM (active); with HEK293 [10] it was 6.6 µM (active).
As for `COCC(C)NC(=O)c1cc2cccc([N+](=O)[O-])c2[nH]1` (centres undefined), the IC50 at Beta-lactamase [12], on Beta-lactamase [13] and on Beta-lactamase [14] was > 59.6 µM (inactive) in each case.
For the molecule `C/C(=N\NC(=O)c1ccccc1O)c1ccc(NC(=O)Cc2ccccc2)cc1`, the IC50 was 2.01 µM (active) in [15]; 12.8 µM (active) in [16]; 2.38 µM (active) in [17]; > 100 µM (inactive) in assay [18]; 15.9 µM (active) in [19]; 14.2 µM (active) in [20].
Take `O=C(C[C@H]1CC[C@@H]2[C@H](COC[C@H](O)CN2Cc2ccc(Oc3ccccc3)cc2)O1)N1CCc2ccccc2C1`: the AbsAC35 in assay [21] came out at 66.11 µM; in [22], 121.3 µM.
As for `COc1ccc(-c2nnc(-c3ccc(N(C)C)cc3)o2)cc1`, the EC50 in assay [23] and in assay [24] was > 91.2 µM (inactive) throughout.
As for `Cc1nc2nonc2c2nccc(O)c12`, the IC50 in assay [25] is 8.83 µM (active); in assay [26], 8.04 µM (active).
